Source: patent US20240384268A1, “Oligonucleotides” (Hudson Institute of Medical Research, priority 2021, published 2024)

Molecular target: T1, TLR8 (Homo sapiens, UniProt Q9NR97)
T1 sequence (Q9NR97 27-1041): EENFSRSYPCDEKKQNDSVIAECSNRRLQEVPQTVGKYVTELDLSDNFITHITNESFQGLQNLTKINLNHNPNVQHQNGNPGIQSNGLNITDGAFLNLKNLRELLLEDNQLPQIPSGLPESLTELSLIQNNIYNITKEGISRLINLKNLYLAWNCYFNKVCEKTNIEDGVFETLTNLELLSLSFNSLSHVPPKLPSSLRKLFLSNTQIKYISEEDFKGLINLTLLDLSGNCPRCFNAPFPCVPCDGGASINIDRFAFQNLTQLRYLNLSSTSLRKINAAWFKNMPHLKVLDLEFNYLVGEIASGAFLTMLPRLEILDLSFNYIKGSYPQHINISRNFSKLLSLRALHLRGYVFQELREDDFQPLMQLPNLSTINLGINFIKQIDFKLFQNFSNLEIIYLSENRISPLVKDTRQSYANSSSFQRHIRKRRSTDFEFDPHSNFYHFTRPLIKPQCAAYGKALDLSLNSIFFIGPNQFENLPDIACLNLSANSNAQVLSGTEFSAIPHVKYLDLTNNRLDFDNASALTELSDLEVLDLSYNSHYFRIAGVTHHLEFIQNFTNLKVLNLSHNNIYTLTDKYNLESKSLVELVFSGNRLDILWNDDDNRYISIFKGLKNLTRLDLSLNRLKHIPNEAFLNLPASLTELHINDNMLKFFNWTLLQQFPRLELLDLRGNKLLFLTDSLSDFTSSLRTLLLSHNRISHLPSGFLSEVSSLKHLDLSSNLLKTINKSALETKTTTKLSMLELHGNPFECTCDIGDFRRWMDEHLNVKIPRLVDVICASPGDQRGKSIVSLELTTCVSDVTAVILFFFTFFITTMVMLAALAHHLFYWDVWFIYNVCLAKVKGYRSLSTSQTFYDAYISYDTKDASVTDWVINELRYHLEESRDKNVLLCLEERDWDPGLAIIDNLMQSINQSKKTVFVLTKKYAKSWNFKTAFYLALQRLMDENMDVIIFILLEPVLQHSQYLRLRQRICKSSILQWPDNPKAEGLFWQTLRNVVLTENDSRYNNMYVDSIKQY
Test: HEK-TLR8 NF-κB-luciferase reporter, R848 or Motolimod stimulation (potentiation or inhibition)
Assay type: cell-based
Parameters: expressed in transfected cells; host or cells: 293XLhTLR8 (HEK293)
Conditions: averaged NF-κB-Luciferase relative to R848 condition (fold increase); for TLR8 100 nM: MOE-modified ASO at 100 nM; for TLR8 500 nM: MOE-modified ASO at 500 nM

Row | Sequence | TLR8 100 nM | TLR8 500 nM
1 | CTCTTGAAGCATCGTATCAC (antisense; 2'-MOE modified, pattern not given here) [CTNN2B-3648 MOE] | 1.650 | 2.200
2 | CAATGTGATGGCCTCCCATC (antisense; 2'-MOE modified, pattern not given here) [HPRT-335 MOE] | 1.518 | 1.677
3 | GTGTCCTTGCACGTGGCTTC (antisense; 2'-MOE modified, pattern not given here) [EGFR-1015 MOE] | 1.383 | 1.274
4 | GTGTCTTCATCGGCCCTGCC (antisense; 2'-MOE modified, pattern not given here) [CAMSAP1-2113 MOE] | 1.247 | 1.093
5 | GTCCACATCCTGTGGCTCGT (antisense; 2'-MOE modified, pattern not given here) [CAMSAP1-2906 MOE] | 0.919 | 0.493
6 | ACAGTGTTGAGATACTCGGG (antisense; 2'-MOE modified, pattern not given here) [EGFR-3652 MOE] | 5.681 | 8.261
7 | CGTGTCTGGAAGCTTCCTTT (antisense; 2'-MOE modified, pattern not given here) [CTNN2B-808 MOE] | 1.476 | 1.222
8 | ATGTGATGGCCTCCCATCTC (antisense; 2'-MOE modified, pattern not given here) [HPRT-333 MOE] | 0.939 | 1.429
9 | ATGTCCCCTGTTGACTGGTC (antisense; 2'-MOE modified, pattern not given here) [HPRT-489 MOE] | 1.752 | 2.118
10 | TTCTGCAGCTTCCTTGTCCT (antisense; 2'-MOE modified, pattern not given here) [CTNN2B-2136 MOE] | 2.049 | 2.408
11 | ATCCAACACTTCGTGGGGTC (antisense; 2'-MOE modified, pattern not given here) [HPRT-668 MOE] | 1.437 | 1.519
12 | GGTCCATACCCAAGGCATCC (antisense; 2'-MOE modified, pattern not given here) [CTNN2B-2446 MOE] | 1.901 | 2.107
13 | GGGAAAGGTTATGCAAGGTC (antisense; 2'-MOE modified, pattern not given here) [CTNN2B-916 MOE] | 3.117 | 3.500
14 | GAACCACGTCTGCTCTAACA (antisense; 2'-MOE modified, pattern not given here) [CAMSAP1-1635 MOE] | 2.787 | 3.827
15 | GGAGCTTCGAGGCCCCAGGC (MOE modified, pattern not given here) [MB21D1-616 MOE] | 0.760 | 0.380
16 | TAGTCAAGGGCATATCCTAC (antisense; 2'-MOE modified, pattern not given here) [HPRT-732 MOE] | 1.457 | 2.087
17 | GCGTGTCTGGAAGCTTCCTT (antisense; 2'-MOE modified, pattern not given here) [CTNN2B-809 MOE] | 1.179 | 0.494
18 | GGTGGTCCACAACCCCTTTC (antisense; 2'-MOE modified, pattern not given here) [MB21D1-697 MOE] | 2.121 | 3.700
19 | CAACACTTCGTGGGGTCCTT (antisense; 2'-MOE modified, pattern not given here) [HPRT-665 MOE] | 1.320 | 1.639
20 | TCGCACTTCAGTCTGAGCAG (antisense; 2'-MOE modified, pattern not given here) [MB21D1-719 MOE] | 1.697 | 2.158
